# In patent US20230416248A1, “COMPOUNDS AND USES THEREOF” (Foghorn Therapeutics Inc., priority 2020, published 2023):
# pIC50: −log10 of the molar value.
# Key:
# BRM = target: T1, BRM (Homo sapiens, UniProt P51531); test: ATPase catalytic activity of BRM, ADP-Glo in vitro biochemical assay; settings: for pIC50: ADP-Glo ATPase assay, 30 nM BRM, 400 μM ATP; for Ratio* (BRG1 IC50 (μM) divided by BRM IC50 (μM)): selectivity ratio BRG1 IC50 / BRM IC50
# T1 construct: made in house; host or cells: High Five insect cells
# Summary of the method: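 Recombinant BRM (30 nM) hydrolysed 400 μM ATP with 20 nM salmon sperm DNA in pH 8 Tris buffer containing 20 mM MgCl2, 50 mM NaCl, 0.1% Tween-20 and 1 mM DTT, 1 h at room temperature. ADP formed was quantified by ADP-Glo luminescence.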
# BRG-1 = target: T2, BRG-1 (Homo sapiens, UniProt P51532); test: ATPase catalytic activity of BRG-1, ADP-Glo in vitro biochemical assay; settings: ADP-Glo ATPase assay, 30 nM BRG-1, 400 μM ATP; read-out: BRG1 IC50
# T2 construct: made in house; host or cells: High Five insect cells
# Description: The ATPase catalytic activity of BRM or BRG-1 was measured by an in vitro biochemical assay using ADP-Glo™ (Promega, V9102). The ADP-Glo™ kinase assay is performed in two steps once the reaction is complete. The first step is to deplete any unconsumed ATP in the reaction. The second step is to convert the reaction product ADP to ATP, which will be utilized by the luciferase to generate luminesce and be detected by a luminescence reader, such as Envision.
# Then, following addition of 5 μL of ADP-Glo™ Reagent provided in the kit, the reaction incubates at room temperature for 40 minutes. Then, 10 μL of Kinase Detection Reagent provided in the kit is added to convert ADP to ATP, and the reaction incubates at room temperature for 60 minutes. Finally, luminescence measurement is collected with a plate-reading luminometer, such as Envision.
# T1 sequence (P51531 whole entry): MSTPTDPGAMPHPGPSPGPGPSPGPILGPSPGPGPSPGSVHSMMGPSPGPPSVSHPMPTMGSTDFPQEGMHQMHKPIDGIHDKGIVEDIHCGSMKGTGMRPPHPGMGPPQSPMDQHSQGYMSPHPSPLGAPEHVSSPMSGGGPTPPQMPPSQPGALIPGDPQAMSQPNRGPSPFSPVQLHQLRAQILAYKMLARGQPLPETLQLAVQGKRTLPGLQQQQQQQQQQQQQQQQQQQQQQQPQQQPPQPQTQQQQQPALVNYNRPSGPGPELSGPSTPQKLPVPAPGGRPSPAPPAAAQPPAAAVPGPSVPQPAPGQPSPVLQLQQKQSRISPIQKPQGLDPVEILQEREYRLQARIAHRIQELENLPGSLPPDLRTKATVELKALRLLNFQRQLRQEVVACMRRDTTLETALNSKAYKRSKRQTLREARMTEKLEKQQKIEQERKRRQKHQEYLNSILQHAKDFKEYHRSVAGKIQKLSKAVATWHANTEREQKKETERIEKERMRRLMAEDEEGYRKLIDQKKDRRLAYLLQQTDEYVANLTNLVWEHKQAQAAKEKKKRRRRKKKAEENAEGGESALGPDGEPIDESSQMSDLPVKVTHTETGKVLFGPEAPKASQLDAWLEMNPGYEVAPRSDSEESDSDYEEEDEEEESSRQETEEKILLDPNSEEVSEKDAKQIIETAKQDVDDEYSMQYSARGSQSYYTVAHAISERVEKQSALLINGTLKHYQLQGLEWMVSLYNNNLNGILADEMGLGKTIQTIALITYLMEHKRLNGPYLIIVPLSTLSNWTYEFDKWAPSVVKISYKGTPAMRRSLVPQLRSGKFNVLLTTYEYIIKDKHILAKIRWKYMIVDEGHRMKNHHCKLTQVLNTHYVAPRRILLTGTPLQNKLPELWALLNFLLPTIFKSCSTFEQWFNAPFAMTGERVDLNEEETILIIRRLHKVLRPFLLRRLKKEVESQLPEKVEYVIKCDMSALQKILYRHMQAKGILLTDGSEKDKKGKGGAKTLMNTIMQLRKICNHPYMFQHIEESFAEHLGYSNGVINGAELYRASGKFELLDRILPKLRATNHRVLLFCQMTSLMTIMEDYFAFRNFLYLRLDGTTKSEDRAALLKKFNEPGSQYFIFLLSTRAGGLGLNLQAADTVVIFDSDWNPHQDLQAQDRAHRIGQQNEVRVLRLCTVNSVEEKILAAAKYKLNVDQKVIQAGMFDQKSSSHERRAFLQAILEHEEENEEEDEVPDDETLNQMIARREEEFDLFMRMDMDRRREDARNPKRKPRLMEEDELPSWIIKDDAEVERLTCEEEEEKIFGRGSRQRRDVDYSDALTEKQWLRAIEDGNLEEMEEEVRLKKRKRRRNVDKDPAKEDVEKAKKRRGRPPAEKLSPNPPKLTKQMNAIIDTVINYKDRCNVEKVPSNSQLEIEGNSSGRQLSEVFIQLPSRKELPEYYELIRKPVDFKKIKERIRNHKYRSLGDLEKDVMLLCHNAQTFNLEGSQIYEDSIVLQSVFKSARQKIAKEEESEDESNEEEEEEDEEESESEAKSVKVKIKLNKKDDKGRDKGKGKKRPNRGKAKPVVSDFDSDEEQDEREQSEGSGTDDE
# T2 sequence (P51532 whole entry): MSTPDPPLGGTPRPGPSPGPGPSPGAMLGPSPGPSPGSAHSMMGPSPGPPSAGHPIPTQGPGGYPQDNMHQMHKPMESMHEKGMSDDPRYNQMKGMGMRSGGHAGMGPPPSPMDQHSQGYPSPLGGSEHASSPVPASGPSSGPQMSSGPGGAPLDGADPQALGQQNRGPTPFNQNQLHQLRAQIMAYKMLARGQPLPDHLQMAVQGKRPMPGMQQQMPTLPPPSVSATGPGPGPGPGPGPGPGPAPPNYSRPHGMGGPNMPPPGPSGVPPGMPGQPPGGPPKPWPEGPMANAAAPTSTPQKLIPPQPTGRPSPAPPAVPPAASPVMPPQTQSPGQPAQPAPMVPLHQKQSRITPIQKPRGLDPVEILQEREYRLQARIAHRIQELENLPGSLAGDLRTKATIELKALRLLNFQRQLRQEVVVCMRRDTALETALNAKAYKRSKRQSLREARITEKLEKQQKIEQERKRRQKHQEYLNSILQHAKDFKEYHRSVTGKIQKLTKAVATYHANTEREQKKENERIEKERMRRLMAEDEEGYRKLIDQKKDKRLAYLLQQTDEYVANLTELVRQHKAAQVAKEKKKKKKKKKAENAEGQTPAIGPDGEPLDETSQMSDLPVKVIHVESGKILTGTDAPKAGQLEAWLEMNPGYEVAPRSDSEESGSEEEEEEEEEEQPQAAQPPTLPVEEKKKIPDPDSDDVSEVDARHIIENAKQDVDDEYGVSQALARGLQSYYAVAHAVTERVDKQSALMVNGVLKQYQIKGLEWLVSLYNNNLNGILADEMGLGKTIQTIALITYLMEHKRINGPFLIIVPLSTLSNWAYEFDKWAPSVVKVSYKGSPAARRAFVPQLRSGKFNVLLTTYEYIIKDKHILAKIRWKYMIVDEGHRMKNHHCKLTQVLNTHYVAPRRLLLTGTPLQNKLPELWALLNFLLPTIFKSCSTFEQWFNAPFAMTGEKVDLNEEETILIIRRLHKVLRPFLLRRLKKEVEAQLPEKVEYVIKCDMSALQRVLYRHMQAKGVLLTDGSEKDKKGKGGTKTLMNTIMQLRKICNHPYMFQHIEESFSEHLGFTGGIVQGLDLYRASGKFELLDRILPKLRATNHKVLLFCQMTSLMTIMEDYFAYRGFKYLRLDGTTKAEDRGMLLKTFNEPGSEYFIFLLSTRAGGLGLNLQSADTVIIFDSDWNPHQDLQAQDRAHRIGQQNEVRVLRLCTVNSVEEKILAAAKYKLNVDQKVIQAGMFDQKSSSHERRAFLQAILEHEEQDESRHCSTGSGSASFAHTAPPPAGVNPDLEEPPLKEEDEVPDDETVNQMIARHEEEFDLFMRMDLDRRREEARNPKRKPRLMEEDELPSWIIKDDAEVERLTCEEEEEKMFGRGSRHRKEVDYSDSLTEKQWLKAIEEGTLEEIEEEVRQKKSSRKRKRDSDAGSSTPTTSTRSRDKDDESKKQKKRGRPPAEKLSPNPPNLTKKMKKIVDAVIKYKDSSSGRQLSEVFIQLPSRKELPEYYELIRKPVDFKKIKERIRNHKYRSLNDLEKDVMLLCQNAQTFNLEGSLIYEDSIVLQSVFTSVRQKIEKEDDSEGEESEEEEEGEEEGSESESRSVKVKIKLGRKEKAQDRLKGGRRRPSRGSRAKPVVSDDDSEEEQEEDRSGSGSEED
Compound,pIC50 (BRM),Ratio* (BRG1 IC50 (μM) divided by BRM IC50 (μM)) (BRM),pIC50 (BRG-1)
CO[C@H]1C[C@H](c2cccc(-c3ccc4cnc(CNC(=O)c5ccc6c(c5)S(=O)(=O)CCOC6)cc4n3)n2)C1 [Compound 106],7.12,8.76,6.18
CN(c1ccccn1)c1ccc2cnc(CNC(=O)c3ccc4c(c3)S(=O)(=O)CCOC4)cc2n1 [Compound 108],6.17,7.43,5.30
COCCN1CCCc2ccc(-c3ccc4cnc(CNC(=O)c5ccc6c(c5)S(=O)(=O)CCOC6)cc4n3)nc21 [Compound 109],7.77,7.52,6.89
CN(CC(F)F)c1cccc(-c2ccc3cnc(CNC(=O)c4ccc5c(c4)S(=O)(=O)CCOC5)cc3n2)n1 [Compound 115],7.63,10.05,6.63
CN(c1cccc(-c2ccc3cnc(CNC(=O)c4ccc5c(c4)S(=O)(=O)CCOC5)cc3n2)n1)[C@@H]1CCOC1 [Compound 116],7.65,10.43,6.63
CN(c1cccc(-c2ccc3cnc(CNC(=O)c4ccc5c(c4)S(=O)(=O)CCOC5)cc3n2)n1)[C@H]1CCOC1 [Compound 117],7.35,7.01,6.51
COc1cc(C(F)F)ccc1-c1ccc2cnc(CNC(=O)c3ccc4c(c3)S(=O)(=O)CCOC4)cc2n1 [Compound 118],7.60,10.11,6.60
O=C(NCc1cc2nc(-c3ccc4c(n3)N(CC(F)F)CC4)ccc2cn1)c1ccc2c(c1)S(=O)(=O)CCOC2 [Compound 119],7.40,5.53,6.66
O=C(NCc1cc2nc(-c3cccc(C4(CF)CC4)n3)ccc2cn1)c1ccc2c(c1)S(=O)(=O)CCOC2 [Compound 120],7.35,10.48,6.33

# Second part, the compound after the results:
pIC50 (BRM),Ratio* (BRG1 IC50 (μM) divided by BRM IC50 (μM)) (BRM),pIC50 (BRG-1),Compound
8.25,9.98,7.25,Cc1ncc(C(=O)NCc2cc3nc(-c4cccc(N5C[C@@H](C)O[C@@H](C)C5)n4)ccc3cn2)cc1S(C)(=O)=O [Compound 107]
7.68,19.51,6.39,COCCN(C)c1cccc(-c2ccc3cnc(CNC(=O)c4ccc(C(F)F)c(S(C)(=O)=O)c4)cc3n2)n1 [Compound 110]
8.22,4.58,7.56,C[C@@H]1CN(c2nc(-c3ccc4cnc(CNC(=O)c5ccc6c(c5)S(=O)(=O)CCOC6)cc4n3)ccc2F)C[C@H](C)O1 [Compound 111]
7.89,13.71,6.75,C[C@@H]1CN(c2cccc(-c3ccc4cnc(CNC(=O)c5ccc6c(c5)S(=O)(=O)CCOC6)cc4n3)c2)C[C@H](C)O1 [Compound 112]
7.23,9.79,6.23,CO[C@H]1C[C@@H](c2cccc(-c3ccc4cnc(CNC(=O)c5ccc6c(c5)S(=O)(=O)CCOC6)cc4n3)n2)C1 [Compound 113]
7.15,22.76,5.79,COCc1c(Cl)cc(C(=O)NCc2cc3nc(-c4cccc(N5C[C@@H](C)O[C@@H](C)C5)n4)ccc3cn2)cc1S(C)(=O)=O [Compound 114]
7.06,5.73,6.30,C[C@@H]1CN(c2cccc(-c3ccc4cnc([C@@H](C)NC(=O)c5ccc6c(c5)S(=O)(=O)CCOC6)cc4n3)n2)C[C@H](C)O1 [Compound 121]
7.99,6.56,7.17,C[C@@H]1CN(c2cccc(-c3ccc4cnc([C@H](C)NC(=O)c5ccc6c(c5)S(=O)(=O)CCOC6)cc4n3)n2)C[C@H](C)O1 [Compound 122]
7.63,12.51,6.54,CS(=O)(=O)c1cc(C(=O)NCc2cc3nc(-c4cccc(N5CC[C@@H]6OCC[C@H]6C5)n4)ccc3cn2)ccc1C(F)F [Compound 123]
7.42,14.29,6.27,CS(=O)(=O)c1cc(C(=O)NCc2cc3nc(-c4cccc(N5CC[C@H]6OCC[C@@H]6C5)n4)ccc3cn2)ccc1C(F)F [Compound 124]
7.74,12.26,6.65,COCCCN(C)c1cccc(-c2ccc3cnc(CNC(=O)c4ccc5c(c4)S(=O)(=O)CCOC5)cc3n2)n1 [Compound 125]
